For 68 molecules, IC50 results are on record in the Kinase Knowledgebase extract (Sharma et al. 2016).

Each structure is given as a SMILES string.

For orientation: IC50 means the concentration needed to halve the response being measured. A low value points to greater potency.

The target of this assay is PIK3CG (human) (UniProt P48736). Put plainly: Inhibition of PIK3CG Kinase Activity.
Sequence of PIK3CG (human) (P48736 whole entry, looked up): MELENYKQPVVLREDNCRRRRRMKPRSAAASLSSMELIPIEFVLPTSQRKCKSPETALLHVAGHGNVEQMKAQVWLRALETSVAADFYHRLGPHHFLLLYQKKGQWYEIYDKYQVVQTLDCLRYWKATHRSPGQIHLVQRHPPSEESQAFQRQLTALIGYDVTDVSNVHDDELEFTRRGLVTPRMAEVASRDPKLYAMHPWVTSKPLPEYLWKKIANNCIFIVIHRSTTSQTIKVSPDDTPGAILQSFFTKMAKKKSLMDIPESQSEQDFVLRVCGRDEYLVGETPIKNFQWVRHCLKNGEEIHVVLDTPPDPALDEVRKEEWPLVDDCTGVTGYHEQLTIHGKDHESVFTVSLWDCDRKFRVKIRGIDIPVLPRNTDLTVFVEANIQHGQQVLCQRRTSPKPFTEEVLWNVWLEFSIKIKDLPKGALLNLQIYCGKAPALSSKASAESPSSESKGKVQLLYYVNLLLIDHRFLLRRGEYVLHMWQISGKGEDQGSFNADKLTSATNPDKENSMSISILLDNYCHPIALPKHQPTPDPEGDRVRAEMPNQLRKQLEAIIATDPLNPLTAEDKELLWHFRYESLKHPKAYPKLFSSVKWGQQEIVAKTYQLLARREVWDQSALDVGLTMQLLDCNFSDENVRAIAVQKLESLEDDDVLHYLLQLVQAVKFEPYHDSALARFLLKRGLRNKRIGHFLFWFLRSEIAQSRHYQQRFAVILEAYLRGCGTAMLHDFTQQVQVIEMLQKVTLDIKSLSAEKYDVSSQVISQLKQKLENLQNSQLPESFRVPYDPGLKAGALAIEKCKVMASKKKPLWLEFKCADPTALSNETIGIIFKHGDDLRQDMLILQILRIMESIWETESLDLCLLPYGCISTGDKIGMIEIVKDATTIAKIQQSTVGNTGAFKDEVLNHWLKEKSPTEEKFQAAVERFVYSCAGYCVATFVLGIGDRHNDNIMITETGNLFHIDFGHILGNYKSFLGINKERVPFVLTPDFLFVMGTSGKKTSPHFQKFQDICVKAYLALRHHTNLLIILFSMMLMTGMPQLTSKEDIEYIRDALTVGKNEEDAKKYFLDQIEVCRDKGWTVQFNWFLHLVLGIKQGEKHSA
Take `CC(=O)Nc1nc2c(s1)-c1c(c(C3CC3)nn1-c1ccc(C(=O)N(C)[C@H]3CC[C@@H](N4CCCCC4)CC3)c(C)c1)CC2`: the IC50 is < 600 nM.

With `CC(=O)Nc1nc2c(s1)-c1c(c(C3CC3)nn1-c1ccc(C(=O)N[C@H]3CC[C@@H](N(C)CC4CC4)CC3)cc1Cl)CC2`, the IC50 was < 600 nM.

Consider `CC(=O)Nc1nc2c(s1)-c1c(c(C3CC3)nn1-c1ccc(C(=O)NC3CCN(C4CCOCC4)CC3)c(C)c1)CC2`, for which the IC50 was < 600 nM. For `CC(=O)Nc1nc2c(s1)-c1c(c(C3CC3)nn1-c1ccc(CC(=O)N[C@@H]3CCN(C4CCCC4)C3)cc1Cl)CC2`, the IC50 is < 600 nM. Then `CCCCN1CCN(C(=O)N2CCC(n3nc(C4CC4)c4c3-c3sc(NC(C)=O)nc3CC4)CC2)CC1`, with < 600 nM; and `CC(=O)Nc1nc2c(s1)-c1c(c(C3CC3)nn1-c1ccc(C(=O)N(C)CC3CCN(C4CCCC4)CC3)cc1Cl)CC2`, with < 600 nM. On to `CC(=O)Nc1nc2c(s1)-c1c(c(C3CC3)nn1-c1ccc(C(=O)N(C)C3CCC(N(C)CC4CCCC4)CC3)c(F)c1)CC2` (stereo not drawn), for which the IC50 was < 600 nM.

Regarding `CC(=O)Nc1nc2c(s1)-c1c(c(C3CC3)nn1-c1ccc(C(=O)N3CCC(CN4CCCC4)CC3)c(Cl)c1)CC2`, the IC50 was < 600 nM. With `CC(=O)Nc1nc2c(s1)-c1c(c(C3CC3)nn1-c1ccc(C(=O)N[C@@H]3CCN(C4CCCCC4)C3)c(Cl)c1)CC2` the figure was < 600 nM; with `CC(=O)Nc1nc2c(s1)-c1c(c(C3CC3)nn1-c1ccccc1C)CC2`, < 600 nM. Then `CC(=O)Nc1nc2c(s1)-c1c(c(C3CCC3)nn1-c1ccc(C(=O)N[C@H]3CC[C@@H](N4CCCCC4)CC3)cc1Cl)CC2`, with < 600 nM.

As for `CC(=O)Nc1nc2c(s1)-c1c(c(C3CC3)nn1-c1ccc(NC(=O)[C@H]3CC[C@@H](N4CCCC4)CC3)cc1Cl)CC2`, the IC50 is < 600 nM. Then `CC(=O)Nc1nc2c(s1)-c1c(c(C3(C)CC3)nn1-c1ccc(C(=O)N(C)[C@H]3CC[C@@H](N4CCCC4)CC3)cc1Cl)CC2`, with < 600 nM; and `CC(=O)Nc1nc2c(s1)-c1c(c(C3CC3)nn1-c1ccc(C(=O)N(C)[C@H]3CCN(C4CCCCC4)C3)cc1C)CC2`, with < 600 nM; and `CC(=O)Nc1nc2c(s1)-c1c(c(C3CC3)nn1-c1ccc(C(=O)N[C@H]3CC[C@@H](N4CCCC4)CC3)cc1C)CC2`, with < 600 nM. Then `CC(=O)Nc1nc2c(s1)-c1c(c(C3CCC3)nn1-c1ccc(C(=O)N[C@H]3CC[C@@H](N4CCCC4)CC3)cc1Cl)CC2`, with < 600 nM; and `CCCN1CCC(NC(=O)c2ccc(-n3nc(C4CCC4)c4c3-c3sc(NC(C)=O)nc3CC4)c(Cl)c2)CC1`, with < 600 nM; and `CC(=O)Nc1nc2c(s1)-c1c(c(C3CC3)nn1C1CCN(C(=O)C3CCN(C4CCCC4)CC3)CC1)CC2`, with < 600 nM. With `CC(=O)Nc1nc2c(s1)-c1c(c(C3CC3)nn1-c1ccccc1)CC2` the figure was < 600 nM; with `CC(=O)Nc1nc2c(s1)-c1c(c(C3CC3)nn1-c1ccc(N(C)C(=O)C3CCN(C4CCCC4)CC3)cc1Cl)CC2`, < 600 nM.

As for `CC(=O)Nc1nc2c(s1)-c1c(c(C3CC3)nn1-c1ccc(C(=O)N(C)C)cc1Cl)CC2`, the IC50 is < 600 nM. With `CC(=O)Nc1nc2c(s1)-c1c(c(C3CC3)nn1-c1ccc(C(=O)N[C@H]3CC[C@@H](N4CCOCC4)CC3)c(C)c1)CC2` the figure was < 600 nM; with `CCCN1CC[C@@H](NC(=O)c2ccc(-n3nc(C4CC4)c4c3-c3sc(NC(C)=O)nc3CC4)c(Cl)c2)C1`, < 600 nM. With `CC(=O)Nc1nc2c(s1)-c1c(c(C3CC3)nn1-c1ccc(C(=O)N(C)[C@H]3CCN(C4CCCCC4)C3)c(Cl)c1)CC2` the figure was < 600 nM; with `CC(=O)Nc1nc2c(s1)-c1c(c(C3CC3)nn1-c1ccc(C(=O)N3CCC(N(C)C4CCCC4)CC3)c(Cl)c1)CC2`, < 600 nM; with `CC(=O)Nc1nc2c(s1)-c1c(c(C3CC3)nn1-c1ccccc1Br)CC2`, < 600 nM.

For the molecule `CC(=O)Nc1nc2c(s1)-c1c(c(C3CC3)nn1C1CCN(C(=O)[C@H]3CC[C@@H](N4CCCC4)CC3)CC1)CC2`, the IC50 is < 600 nM. Then `CC(=O)Nc1nc2c(s1)-c1c(c(C3CC3)nn1-c1ccc(C(=O)N[C@@H]3CCN(C4CCCCC4)C3)cc1Cl)CC2`, with < 600 nM; and `CC(=O)Nc1nc2c(s1)-c1c(c(C3CC3)nn1-c1ccc(C(=O)N(C)[C@H]3CC[C@@H](N4CCCCC4)CC3)cc1C)CC2`, with < 600 nM.

Consider `CC(=O)Nc1nc2c(s1)-c1c(c(C3CC3)nn1-c1ccc(C(=O)N[C@@H]3CCN(CC4CCCC4)C3)c(C)c1)CC2`, for which the IC50 is < 600 nM.

Take `CC(=O)Nc1nc2c(s1)-c1c(c(C3CC3)nn1-c1ccc(C(=O)N[C@H]3CC[C@@H](N(C)CC4CC4)CC3)cc1F)CC2`: the IC50 was < 600 nM. With `CC(=O)Nc1nc2c(s1)-c1c(c(C3CC3)nn1-c1ccc(C(=O)N[C@H]3CC[C@@H](N(C)CC4CC4)CC3)c(F)c1)CC2` the figure was < 600 nM. With `CC(=O)Nc1nc2c(s1)-c1c(c(C3CCCC3)nn1-c1ccc(C(=O)NC3CCN(C4CCOCC4)CC3)cc1Cl)CC2` the figure was < 600 nM; with `CC(=O)Nc1nc2c(s1)-c1c(c(C3CCCC3)nn1-c1ccc(C(=O)N[C@H]3CC[C@@H](N4CCCC4)CC3)cc1Cl)CC2`, < 600 nM; with `CC(=O)Nc1nc2c(s1)-c1c(c(C3CC3)nn1-c1ccc(C(=O)NC3CCN(CC4CCCCC4)CC3)c(C)c1)CC2`, < 600 nM. With `CC(=O)Nc1nc2c(s1)-c1c(c(C3CC3)nn1-c1ccc(C(=O)N(C)[C@H]3CC[C@@H](N(C)CC4CC4)CC3)cc1Cl)CC2` the figure was < 600 nM.

`CC(=O)Nc1nc2c(s1)-c1c(c(C3CC3)nn1-c1ccc(C(=O)N(C)C3CCC(N4CCCC4)CC3)cc1Cl)CC2` (stereo not drawn): the IC50 was < 600 nM. With `CC(=O)Nc1nc2c(s1)-c1c(c(C3CC3)nn1-c1ccc(C(=O)N(C)[C@H]3CC[C@@H](N(C)CC4CC4)CC3)cc1F)CC2` the figure was < 600 nM.

On to `CC(=O)Nc1nc2c(s1)-c1c(c(C3CC3)nn1-c1ccc(C(=O)NC3CCN(CC4CCCCC4)CC3)c(Cl)c1)CC2`, for which the IC50 is < 600 nM.

Take `CC(=O)Nc1nc2c(s1)-c1c(c(C3CC3)nn1-c1ccc(C(=O)N(C)[C@@H]3CCN(CC4CCCC4)C3)cc1F)CC2`: the IC50 was < 600 nM. With `CC(=O)Nc1nc2c(s1)-c1c(c(C3CC3)nn1-c1ccc(C(=O)NC3CCN(C4CCCC4)CC3)cc1Cl)CC2` the figure was < 600 nM; with `CCCN1CC[C@@H](NC(=O)c2ccc(-n3nc(C4CC4)c4c3-c3sc(NC(C)=O)nc3CC4)cc2C)C1`, < 600 nM. Turning to `CC(=O)Nc1nc2c(s1)-c1c(c(C3CC3)nn1-c1ccc(C(=O)NC3CCN(CC4CCCCC4)CC3)cc1Cl)CC2`, the IC50 is < 600 nM. Then `CC(=O)Nc1nc2c(s1)-c1c(c(C3CC3)nn1-c1ccc(C(=O)N(C)[C@H]3CC[C@@H](N(C)CC4CC4)CC3)c(Cl)c1)CC2`, with < 600 nM; and `CC(=O)Nc1nc2c(s1)-c1c(c(C3CC3)nn1-c1ccc(C(=O)N[C@@H]3CCN(C4CCCC4)C3)c(F)c1)CC2`, with < 600 nM. Then `CC(=O)Nc1nc2c(s1)-c1c(c(C3CC3)nn1-c1ccc(C(=O)N[C@H]3CC[C@@H](N4CCCC4)CC3)cc1F)CC2`, with < 600 nM; and `CC(=O)Nc1nc2c(s1)-c1c(c(C3CC3)nn1-c1ccc(C(=O)N(C)C3CCC(N4CCCC4)CC3)c(F)c1)CC2` (stereo not drawn), with < 600 nM; and `CC(=O)Nc1nc2c(s1)-c1c(c(C3CC3)nn1-c1ccc(C(=O)NC3CCN(C4CCCCC4)CC3)c(F)c1)CC2`, with < 600 nM. With `CCCN1CCC(C(=O)N2CCC(n3nc(C4CC4)c4c3-c3sc(NC(C)=O)nc3CC4)CC2)CC1` the figure was < 600 nM; with `CC(=O)Nc1nc2c(s1)-c1c(c(C3CC3)nn1-c1ccc(C(=O)N[C@H]3CC[C@@H](N4CCCC4)CC3)c(C)c1)CC2`, < 600 nM. Take `CCCN1CC[C@@H](NC(=O)c2ccc(-n3nc(C4CC4)c4c3-c3sc(NC(C)=O)nc3CC4)c(F)c2)C1`: the IC50 was < 600 nM.

Consider `CC(=O)Nc1nc2c(s1)-c1c(c(C3CC3)nn1-c1ccc(C(=O)N(C)[C@@H]3CCN(C4CCCC4)C3)c(F)c1)CC2`, for which the IC50 is < 600 nM. In the case of `CC(=O)Nc1nc2c(s1)-c1c(c(C3CCCC3)nn1-c1ccc(C(=O)NC3CCN(C4CCCC4)CC3)cc1Cl)CC2`, the IC50 was < 600 nM. As for `CNC(=O)c1ccc(-n2nc(C3CC3)c3c2-c2sc(NC(C)=O)nc2CC3)c(Cl)c1`, the IC50 is < 600 nM.

`CC(=O)Nc1nc2c(s1)-c1c(c(C3CCC3)nn1-c1ccc(C(=O)NC3CCN(CC4CCCC4)CC3)cc1Cl)CC2`: the IC50 is < 600 nM. With `CC(=O)Nc1nc2c(s1)-c1c(c(C3CC3)nn1-c1ccc(C(=O)N[C@H]3CN4CCC3CC4)c(Cl)c1)CC2` the figure was < 600 nM; with `CC(=O)Nc1nc2c(s1)-c1c(c(C3CC3)nn1C1CCC(C(N)=O)CC1)CC2` (stereo not drawn), < 600 nM; with `CC(=O)Nc1nc2c(s1)-c1c(c(C3CC3)nn1-c1ccc(N)cc1Cl)CC2`, < 600 nM. As for `CC(=O)Nc1nc2c(s1)-c1c(c(C3CC3)nn1C1CCC(C(=O)N(C)[C@H]3CC[C@H](N4CCCC4)CC3)CC1)CC2` (stereo partly drawn), the IC50 is < 600 nM. Then `CC(=O)Nc1nc2c(s1)-c1c(c(C3CC3)nn1-c1ccc(C(=O)N3CCC(N4CCCC4)CC3)c(Cl)c1)CC2`, with < 600 nM; and `CC(=O)Nc1nc2c(s1)-c1c(c(C3(C)CC3)nn1-c1ccc(C(=O)N[C@H]3CC[C@@H](N4CCCCC4)CC3)cc1Cl)CC2`, with < 600 nM. With `CC(=O)Nc1nc2c(s1)-c1c(c(C3CC3)nn1-c1ccc(O)cc1Cl)CC2`, the IC50 is < 60 nM.

On to `CC(=O)Nc1nc2c(s1)-c1c(c(C3CC3)nn1-c1ccc(C(=O)N[C@H]3CC[C@@H](N4CCCC4)CC3)c(F)c1)CC2`, for which the IC50 was < 600 nM. With `CC(=O)Nc1nc2c(s1)-c1c(c(C3CC3)nn1-c1ccc(C(=O)N[C@H]3CC[C@@H](N4CCCC4)CC3)c(Cl)c1)CC2`, the IC50 is < 600 nM. With `CC(=O)Nc1nc2c(s1)-c1c(c(C3CC3)nn1-c1ccc(C(=O)N(C)[C@@H]3CCN(CC4CCCC4)C3)cc1C)CC2`, the IC50 was < 600 nM. On to `CC(=O)Nc1nc2c(s1)-c1c(c(C3CCC3)nn1-c1ccc(C(=O)NC3CCN(C)CC3)cc1Cl)CC2`, for which the IC50 was < 600 nM. Then `CC(=O)Nc1nc2c(s1)-c1c(c(C3CC3)nn1-c1ccc(C(=O)NC3CCN(CC4CCCC4)CC3)c(C)c1)CC2`, with < 600 nM. Consider `COc1cc(-n2nc(C3CC3)c3c2-c2sc(NC(C)=O)nc2CC3)ccc1C(=O)N[C@H]1CC[C@@H](N2CCCC2)CC1`, for which the IC50 was < 600 nM.
